Data reported in article PMC5354820, “Novel PARP1/2 inhibitor mefuparib hydrochloride elicits potent in vitro and in vivo anticancer activity, characteristic of high tissue distribution” (Oncotarget, 2016).
Values after ≈ are worked out from the molar mass of the structure shown. Where two headings read alike, the source gives them in different places.

What was measured:
MDA-MB-436 xenografts = assay: MDA-MB-436 subcutaneous xenografts in nude mice; assay type: in vivo; settings: oral; MPH once every other day, AZD2281 30 mg/kg each day
Description: (§1) V-C8, V79, MDA-MB-436 and SW620 xenografts were established by inoculating 5 × 10^6 cells s.c. in nude mice, respectively. After 1~2 passages in nude mice, the well-grown xenografts were cut into 1.5-mm^3 fragments that subsequently were transplanted s.c. into the right flank of nude mice. When xenografts reached a volume of 100–200 mm^3 (230-240 mm^3 for V79), the mice were randomized to control and treated groups and received the corresponding treatments as indicated. […]. The size of xenografts and the body weight of mice were measured individually twice per week. The xenografts were measured for the maximal width (X) and length (Y) and the volume (V) was calculated as (X^2Y)/2. Relative tumor volume (RTV) was calculated as Vt / V0, where V0 and Vt were the volume before and after treatments, respectively. The in vivo anticancer activity was judged by their T/C (%) values. T/C (%) was calculated as (TRTV / CRTV)×100%, where TRTV and CRTV represented the RTV of the treatment and the vehicle group, respectively.

γH2AX in V-C8 cells = assay: γH2AX accumulation in cultured V-C8 cells; assay type: cell-based, Chinese hamster; settings: V-C8 (BRCA2−/−), concentration-dependent
[1] = cited from earlier work
HCT-15 cells = assay: Proliferative inhibition assay, HCT-15; assay type: cell-based; settings: Homo sapiens, HCT-15, 168 h, read-out: IC50 (mean ± SD)
Protocol: (§2) Cells cultured in 96-well plates were treated with PARP inhibitors alone or in combination with the indicated anticancer drugs for 3 days (Chinese hamster cells and Ewing sarcoma cells) or 7 days (all the other cells). Then the cells were subjected to the Cell Counting Kit 8 (CCK8) assays (Chinese hamster cells, Ewing sarcoma cells, HCC1937 and MDA-MB-436 cells) or by Sulforhodamine B (SRB) assays (all the other cells) as described previously [18, 19]. […] The averaged IC50 values (mean ± SD) were determined with the Logit method from three independent tests.

MDA-MB-436 cells = assay: Proliferative inhibition assay, MDA-MB-436; assay type: cell-based; settings: Homo sapiens, MDA-MB-436, 168 h, read-out: IC50 (mean ± SD)
Protocol: as §2

V-C8 xenografts = assay type: in vivo; settings: mouse, in vivo
Description: as §1

SK-ES-1 cells = assay: Proliferative inhibition assay, SK-ES-1; assay type: cell-based; settings: Homo sapiens, SK-ES1, 72 h, read-out: IC50 (mean ± SD)
Protocol: as §2

Capan-1 cells = assay: Proliferative inhibition assay, Capan-1; assay type: cell-based; settings: Homo sapiens, CAPAN-1, 168 h, read-out: IC50 (mean ± SD)
Protocol: as §2

V79 cells = assay: Proliferative inhibition assay, V79; assay type: cell-based, Chinese hamster; settings: Cricetulus griseus, V79, 72 h, read-out: IC50 (mean ± SD)
Protocol: as §2

V-C8 cells = assay: Proliferative inhibition assay, V-C8; assay type: cell-based, Chinese hamster; settings: Cricetulus griseus, V-C8, 72 h, read-out: IC50 (mean ± SD)
Protocol: as §2

U251 cells = assay: Proliferative inhibition assay, U251; assay type: cell-based; settings: Homo sapiens, U-251, 168 h, read-out: IC50 (mean ± SD)
Protocol: as §2

DoTc2-4510 cells = assay: Proliferative inhibition assay, DoTc2-4510; assay type: cell-based; settings: Homo sapiens, DoTc2-4510, 168 h, read-out: IC50 (mean ± SD)
Protocol: as §2

V79 xenografts = assay: V79 subcutaneous xenografts in nude mice; assay type: in vivo; settings: similar treatments as in V-C8 xenografts
Description: as §1

[2] = design: method as in PMID 19553641; settings: cited from earlier work
UWB1.289 cells = assay: Proliferative inhibition assay, UWB1.289; assay type: cell-based; settings: Homo sapiens, UWB1289, 168 h, read-out: IC50 (mean ± SD)
Protocol: as §2

[3] = design: method as in PMID 18800822; settings: rats; cited from earlier work
[4] = design: method as in PMID 19553641; settings: humans; cited from earlier work
[5] = design: method as in PMID 18800822; settings: dogs; cited from earlier work
[6] = tested on: γH2AX in MDA-MB-436 cells; assay: γH2AX accumulation in cultured MDA-MB-436 cells; assay type: cell-based, human; settings: MDA-MB-436 (BRCA1−/−), concentration-dependent
P-glycoprotein (P-gp) = tested on: P-glycoprotein (P-gp); design: method as in PMID 26374559; settings: cited from earlier work
HCC1937 cells = assay: Proliferative inhibition assay, HCC1937; assay type: cell-based; settings: Homo sapiens, HCC1937, 168 h, read-out: IC50 (mean ± SD)
Protocol: as §2

V-C8+H13 cells = assay: Proliferative inhibition assay, V-C8+H13; assay type: cell-based, Chinese hamster; settings: Cricetulus griseus, 72 h, read-out: IC50 (mean ± SD)
Protocol: as §2

RD-ES cells = assay: Proliferative inhibition assay, RD-ES; assay type: cell-based; settings: Homo sapiens, 72 h, read-out: IC50 (mean ± SD)
Protocol: as §2

PC-3 cells = assay: Proliferative inhibition assay, PC-3; assay type: cell-based; settings: Homo sapiens, PC-3, 168 h, read-out: IC50 (mean ± SD)
Protocol: as §2

[7] = Metabolites in monkey plasma; assay type: in vivo; settings: monkeys, MPH 10 mg/kg oral; for share of the total amount of all the metabolites and MPH in the plasma: 3-h time point; for average remaining amount, of the corresponding plasma amount at 3 h: 12-h time point
Protocol: SD rats and cynomolgus monkeys were used to do the in vivo pharmacokinetic studies. […] The metabolites in the monkey plasma were analyzed by UPLC-UV/Q-TOF MS. The metabolite data were collected with Analyst® TF V1.6 (AB Sciex Inc., Framingham, MA) and Masslynx V4.1 (Waters Corporation, Milford, MA) and analyzed with PeakView® V1.2 and MetabolitePilot V1.5 (AB Sciex).

SW620 xenografts = assay: SW620 subcutaneous xenografts in nude mice, alone or with TMZ; assay type: in vivo; settings: SW620, d21, TMZ 2 mg/kg alone
Protocol: After 1~2 passages in nude mice, the well-grown xenografts were cut into 1.5-mm^3 fragments that subsequently were transplanted s.c. into the right flank of nude mice. When xenografts reached a volume of 100–200 mm^3 (230-240 mm^3 for V79), the mice were randomized to control and treated groups and received the corresponding treatments as indicated. […] The size of xenografts and the body weight of mice were measured individually twice per week. The xenografts were measured for the maximal width (X) and length (Y) and the volume (V) was calculated as (X^2Y)/2. Relative tumor volume (RTV) was calculated as Vt / V0, where V0 and Vt were the volume before and after treatments, respectively.

O=C(c1cc(Cc2n[nH]c(=O)c3ccccc23)ccc1F)N1CCN(C(=O)C2CC2)CC1 [AZD2281, olaparib, reference compound]
effect on growth of MDA-MB-436 (BRCA1−/−) xenografts (MDA-MB-436 xenografts): between those of MPH at 40 mg/kg and 80 mg/kg every other day
γH2AX levels (DSB accumulation) (γH2AX in V-C8 cells): increased levels of γH2AX
water solubility [1]: < 1000 µg/mL
solubility in aqueous media ([1]; independent of pH): 100 µg/mL (≈ 230 µM)
IC50 (HCT-15 cells): 25700 ± 4700 nM
IC50 (MDA-MB-436 cells): 20 ± 10 nM
death or body-weight loss of the animals (V-C8 xenografts): did not cause death or significant body-weight loss
IC50 (SK-ES-1 cells): 1700 ± 130 nM
IC50 (Capan-1 cells): 1730 ± 320 nM
IC50 (V79 cells): 15600 ± 1150 nM
IC50 (V-C8 cells): 610 ± 40 nM
IC50 (U251 cells): 2500 ± 640 nM
IC50 (DoTc2-4510 cells): 890 ± 280 nM
effect on growth of V79 xenografts (V79 xenografts): did not inhibit the growth of V79 xenografts
passage of the blood-brain barrier [2]: hard to go through the blood-brain barrier
IC50 (UWB1.289 cells): 2980 ± 1650 nM
Vd [3]: 1.18 L/kg
average Vd [4]: 40.3 L
Vd [5]: 1.3 L/kg
γH2AX levels (DSB accumulation) [6]: increased levels of γH2AX
P-gp substrate (P-glycoprotein (P-gp)): substrate of the drug transporter P-glycoprotein (P-gp)
IC50 (HCC1937 cells): 7280 ± 1910 nM
IC50 (V-C8+H13 cells): 13600 ± 1850 nM
IC50 (RD-ES cells): 670 ± 140 nM
IC50 (PC-3 cells): 4700 ± 690 nM

CNCc1ccc(-c2cc3cc(F)cc(C(=O)O)c3o2)cc1 [M1]
share of the total amount of all the metabolites and MPH in the plasma [7]: 52.18%
average remaining amount, of the corresponding plasma amount at 3 h [7]: 3.13%

NC(=O)c1cc(F)cc2cc(-c3ccc(C(=O)O)cc3)oc12 [M2]
share of the total amount of all the metabolites and MPH in the plasma [7]: 1.86%
average remaining amount, of the corresponding plasma amount at 3 h [7]: 23.54%

CNCc1ccc(-c2cc3cc(F)cc(C(=O)OC4OC(C(=O)O)C(O)C(O)C4O)c3o2)cc1 (centres unmarked) [M3]
share of the total amount of all the metabolites and MPH in the plasma [7]: 4.18%

CNC(=O)c1ccc(-c2cc3cc(F)cc(C(N)=O)c3o2)cc1 [M4]
share of the total amount of all the metabolites and MPH in the plasma [7]: 0.24%

CC(=O)NCc1ccc(-c2cc3cc(F)cc(C(=O)O)c3o2)cc1 [M5]
share of the total amount of all the metabolites and MPH in the plasma [7]: 0.72%

CN(Cc1ccc(-c2cc3cc(F)cc(C(N)=O)c3o2)cc1)OC1OC(C(=O)O)C(O)C(O)C1O (centres unmarked) [M6]
share of the total amount of all the metabolites and MPH in the plasma [7]: 1.63%

Cn1nnc2c(C(N)=O)ncn2c1=O [TMZ, temozolomide, reference compound]
FTV (fractional tumor volume), TMZ alone (SW620 xenografts): 0.16

NC(=O)c1cccc2cn(-c3ccc([C@@H]4CCCNC4)cc3)nc12 [niraparib]
water solubility [1]: < 1000 µg/mL

CNCc1ccc(-c2[nH]c3cc(F)cc4c3c2CCNC4=O)cc1 [rucaparib]
water solubility [1]: < 1000 µg/mL

Cn1ncnc1[C@H]1c2n[nH]c(=O)c3cc(F)cc(c23)N[C@@H]1c1ccc(F)cc1 [talazoparib]
water solubility [1]: < 1000 µg/mL

C[C@]1(c2nc3c(C(N)=O)cccc3[nH]2)CCCN1 [veliparib]
water solubility [1]: < 1000 µg/mL
